Broadly, the IC50 is the concentration at which inhibition is half-maximal.

Our source for the IC50 values is patent publication US8440652B2, “MST1 kinase inhibitors and methods of their use” (Lexicon Pharmaceuticals, Inc., priority 2011, dated 2013).

Where two headings read alike, the source gives them in different places.

In this assay the target is T1, MST1 (Homo sapiens, UniProt Q13043).
T1 sequence (Q13043 1-487): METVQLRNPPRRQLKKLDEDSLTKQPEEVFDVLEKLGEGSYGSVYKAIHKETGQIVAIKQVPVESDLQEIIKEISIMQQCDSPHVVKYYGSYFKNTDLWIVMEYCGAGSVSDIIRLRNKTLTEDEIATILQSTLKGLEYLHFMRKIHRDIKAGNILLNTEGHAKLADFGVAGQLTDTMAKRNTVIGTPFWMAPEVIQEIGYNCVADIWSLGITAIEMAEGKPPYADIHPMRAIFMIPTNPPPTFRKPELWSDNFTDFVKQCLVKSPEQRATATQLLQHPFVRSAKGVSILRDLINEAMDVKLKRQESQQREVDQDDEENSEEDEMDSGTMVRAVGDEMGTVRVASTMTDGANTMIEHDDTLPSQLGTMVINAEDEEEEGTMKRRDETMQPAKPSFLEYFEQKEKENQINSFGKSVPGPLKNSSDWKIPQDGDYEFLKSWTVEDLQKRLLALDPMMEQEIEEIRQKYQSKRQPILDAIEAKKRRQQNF
Briefly: In vitro measurement of MST1 inhibition (Z′-Lyte kinase assay). It counts as biochemical. As to the method:
Assays were performed in low-volume 384-well black proxiplates (Perkin Elmer, PE-Blk-Proxi-6008269). Eight compounds were first diluted into LDV (Echo) plates using a Multiprobe, at a starting concentration of 1 mM compound in 100% DMSO. Using the ECHO, 75 nl compound was pinged into 384-well proxiplates. The starting concentration of compound in each assay plate is 7.5 uM, followed by 3-fold dilutions, to give quadruplicate ten-point concentration curves. A 3× solution of MST1 enzyme in kinase buffer (Invitrogen, PR4940C) was added to wells containing compound or DMSO controls, followed by a 10 minute preincubation step. Reactions were initiated by adding 5 μL of a mixture of ATP and Z′-Lyte S/T Pep 7 (Invitrogen, PV3180) and proceeded at RT for 1 hour. […] At the end of the kinase reaction, 10 ul of developing solution (Invitrogen, catalog #PR4876B; development buffer A diluted […] in development buffer B) was added to each well and incubated at RT for 1 hr. All wells were read on a Tecan at 400 nm excitation and 460 nm/530 nm emission. Plus and minus enzyme controls were used to calculate percent inhibition and IC50 curves were generated using Excel.

The mark [1] stands for this setting: 1 μM ATP, read-out: IC50 (μM) 1 μM ATP.
Where [2] appears, read: 50 μM ATP, read-out: IC50 (μM) 50 μM ATP.

For the molecule `C[C@H]1CNc2cc(-c3cc(-c4ccc(S(=O)(=O)NC5CC5)cc4)cnc3N)ccc2C(=O)N1` [(S)-4-(6-amino-5-(3-methyl-5-oxo-2,3,4,5-tetrahydro-1H-benzo[e][1,4]diazepin-8-yl)pyridin-3-yl)-N-cyclopropylbenzenesulfonamide], the IC50 runs as follows: under setting [1], less than 0.01 µM; under setting [2], less than 0.01 µM. `CC1(C)CNC(=O)c2ccc(-c3cc(-c4ccc(S(=O)(=O)NC5CC5)cc4)cnc3N)cc21` [4-(6-amino-5-(4,4-dimethyl-1-oxo-1,2,3,4-tetrahydroisoquinolin-6-yl)pyridin-3-yl)-N-cyclopropylbenzenesulfonamide]: the IC50 runs as follows: under setting [1], less than 0.01 µM; under setting [2], less than 0.01 µM.

Consider `CC1CNc2cc(-c3nc(-c4ccc(S(=O)(=O)N(C)C5CC5)cc4)cnc3N)ccc2C(=O)N1` (centres unmarked) [4-(5-amino-6-(3-methyl-5-oxo-2,3,4,5-tetrahydro-1H-benzo[e][1,4]diazepin-8-yl)pyrazin-2-yl)-N-cyclopropyl-N-methylbenzenesulfonamide], for which the IC50 is less than 0.01 µM under setting [1] and less than 0.01 µM under setting [2]. For the molecule `CCN(C)S(=O)(=O)c1ccc(-c2cnc(N)c(-c3ccc4c(c3)CCNC4=O)n2)nc1` [6-(5-amino-6-(1-oxo-1,2,3,4-tetrahydroisoquinolin-6-yl)pyrazin-2-yl)-N-ethyl-N-methylpyridine-3-sulfonamide], the IC50 reads like this: under setting [1], less than 0.01 µM; under setting [2], less than 0.01 µM. On to `Cc1cc(-c2cnc(N)c(-c3ccc4c(c3)C(C)(C)CNC4=O)n2)ccc1S(=O)(=O)NC1CC1` [4-(5-amino-6-(4,4-dimethyl-1-oxo-1,2,3,4-tetrahydroisoquinolin-6-yl)pyrazin-2-yl)-N-cyclopropyl-2-methylbenzenesulfonamide], for which the IC50 under setting [1] is less than 0.01 µM and the IC50 under setting [2] was less than 0.01 µM. Consider `CC(C)(C)c1ccc(-c2cnc(N)c(-c3ccc4c(c3)CCNC4=O)n2)cc1` [6-(3-amino-6-(4-(tert-butyl)phenyl)pyrazin-2-yl)-3,4-dihydroisoquinolin-1(2H)-one], for which the IC50 is, setting by setting: under setting [1], less than 0.05 µM; under setting [2], less than 0.01 µM. On to `CC(C)(Oc1ccc(-c2cnc(N)c(-c3ccc4c(c3)CCNC4=O)n2)cc1)C(N)=O` [2-(4-(5-amino-6-(1-oxo-1,2,3,4-tetrahydroisoquinolin-6-yl)pyrazin-2-yl)phenoxy)-2-methylpropanamide], for which the IC50 under setting [1] was less than 0.05 µM and the IC50 under setting [2] is less than 0.01 µM.

For `Nc1ncc(-c2ccc3c(c2)CNS3(=O)=O)cc1-c1ccc2c(c1)CCNC2=O` [6-(2-amino-5-(1,1-dioxido-2,3-dihydrobenzo[d]isothiazol-5-yl)pyridin-3-yl)-3,4-dihydroisoquinolin-1(2H)-one], the IC50 by setting is: under setting [1], less than 0.05 µM; under setting [2], less than 0.01 µM. Turning to `CN(C1CC1)S(=O)(=O)c1ccc(-c2cnc(N)c(-c3ccc4c(c3)C3(CC3)CNC4=O)c2)cc1` [4-(6-amino-5-(1′-oxo-2′,3′-dihydro-1′H-spiro[cyclopropane-1,4′-isoquinolin]-6′-yl)pyridin-3-yl)-N-cyclopropyl-N-methylbenzenesulfonamide], the IC50 is less than 0.01 µM under setting [1] and less than 0.01 µM under setting [2]. Consider `CCN(CC)S(=O)(=O)c1ccc(-c2cnc(N)c(-c3ccc4c(c3)CCCC(=O)N4)c2)cc1` [4-(6-amino-5-(2-oxo-2,3,4,5-tetrahydro-1H-benzo[b]azepin-7-yl)pyridin-3-yl)-N,N-diethylbenzenesulfonamide], for which the half-inhibitory concentration (IC50) under setting [2] was less than 0.15 µM. On to `CCNS(=O)(=O)c1ccc(-c2cnc(N)c(C(=O)NC3CCCCC3)n2)cc1` [3-amino-N-cyclohexyl-6-(4-(N-ethylsulfamoyl)phenyl)pyrazine-2-carboxamide], for which the concentration for half-maximal inhibition (IC50) reads like this: under setting [1], less than 0.15 µM; under setting [2], less than 0.05 µM.

`CC1(C)NC(=O)c2ccc(-c3nc(-c4ccc(S(=O)(=O)NC5CC5)cc4)cnc3N)cc21` [4-(5-amino-6-(3,3-dimethyl-1-oxoisoindolin-5-yl)pyrazin-2-yl)-N-cyclopropylbenzenesulfonamide]: the 50% inhibitory concentration (IC50) was less than 0.05 µM under setting [1] and less than 0.01 µM under setting [2]. Regarding `CN(C1CC1)S(=O)(=O)c1ccc(-c2cnc(N)c(-c3ccc4c(c3)C3(CC3)CNC4=O)n2)cc1` [4-(5-amino-6-(1′-oxo-2′,3′-dihydro-1′H-spiro[cyclopropane-1,4′-isoquinolin]-6′-yl)pyrazin-2-yl)-N-cyclopropyl-N-methylbenzenesulfonamide], the half-inhibitory concentration (IC50) under setting [1] was less than 0.01 µM and the IC50 under setting [2] is less than 0.01 µM. In the case of `CN(C1CC1)S(=O)(=O)c1ccc(-c2cnc(N)c(-c3ccc4c(O)ncc(Br)c4c3)n2)cc1` [4-(5-amino-6-(4-bromo-1-hydroxyisoquinolin-6-yl)pyrazin-2-yl)-N-cyclopropyl-N-methylbenzenesulfonamide], the IC50 by setting is: under setting [1], less than 0.01 µM; under setting [2], less than 0.01 µM. As for `CN(C1CC1)S(=O)(=O)c1ccc(-c2cnc(N)c(-c3cc4c(cn3)C(=O)NCC4)c2)cc1` [4-(6-amino-5-(8-oxo-5,6,7,8-tetrahydro-2,7-naphthyridin-3-yl)pyridin-3-yl)-N-cyclopropyl-N-methylbenzenesulfonamide], the IC50 was less than 0.01 µM under setting [1] and less than 0.01 µM under setting [2]. On to `NC(=O)c1ccc(-c2cc(-c3ccc(S(=O)(=O)NC4CC4)cc3)cnc2N)cc1` [4-(2-amino-5-(4-(N-cyclopropylsulfamoyl)phenyl)pyridin-3-yl)benzamide], for which the half-maximal inhibitory concentration (IC50) under setting [1] was less than 0.05 µM and the IC50 under setting [2] was less than 0.05 µM. In the case of `N#CC1(c2ccc(-c3cnc(N)c(-c4ccc5c(c4)CCNC5=O)n3)cc2)CCOCC1` [4-(4-(5-amino-6-(1-oxo-1,2,3,4-tetrahydroisoquinolin-6-yl)pyrazin-2-yl)phenyl)tetrahydro-2H-pyran-4-carbonitrile], the IC50 runs as follows: under setting [1], less than 0.05 µM; under setting [2], less than 0.01 µM. As for `NC(=O)c1ccc(-c2cc(-c3ccc(S(=O)(=O)NC4CC4)cc3Cl)cnc2N)cc1` [4-(2-amino-5-(2-chloro-4-(N-cyclopropylsulfamoyl)phenyl)pyridin-3-yl)benzamide], under setting [2], the IC50 is less than 0.15 µM. For `CN(C1CC1)S(=O)(=O)c1ccc(-c2cnc(N)c(-c3ccc4c(=O)[nH]ccc4c3)n2)cc1` [4-(5-amino-6-(1-oxo-1,2-dihydroisoquinolin-6-yl)pyrazin-2-yl)-N-cyclopropyl-N-methylbenzenesulfonamide], the IC50 is, setting by setting: under setting [1], less than 0.01 µM; under setting [2], less than 0.01 µM.

Consider `Nc1ncc(-c2ccc(C(=O)NCc3ccccc3)cc2)cc1-c1ccc(C(=O)NO)cc1` [4-(2-amino-5-(4-(benzylcarbamoyl)phenyl)pyridin-3-yl)-N-hydroxybenzamide], for which the IC50 under setting [2] was less than 0.15 µM. Take `[2H]C1([2H])CNC(=O)c2ccc(-c3nc(-c4ccc(S(=O)(=O)NC5CC5)cc4)cnc3N)cc21` [4-(5-amino-6-(4,4-dideutero-1-oxo-1,2,3,4-tetrahydroisoquinolin-6-yl)pyrazin-2-yl)-N-cyclopropylbenzenesulfonamide]: the IC50 under setting [1] was less than 0.01 µM and the IC50 under setting [2] was less than 0.01 µM. Take `N#CC1(c2ccc(-c3cnc(N)c(-c4ccc5c(c4)C4(CC4)NC5=O)c3)cc2)CCOCC1` [4-(4-(6-amino-5-(3′-oxospiro[cyclopropane-1,1′-isoindolin]-6′-yl)pyridin-3-yl)phenyl)tetrahydro-2H-pyran-4-carbonitrile]: the IC50 under setting [1] is less than 0.05 µM and the IC50 under setting [2] was less than 0.01 µM.
